Source: US10894948B2, “Resetting pluripotent stem cells” (CAMBRIDGE ENTERPRISE LIMITED, priority 2014, dated 2021)
Entries after “also recorded” stand apart in the source; their conditions may differ.

Experiments:
reset cells [1] = assay: Expansion of reset cells in different CH concentrations; type: cell-based, human
Description: C. Expansion of reset cells in different CH concentrations. Cells were plated at 5×10^4 cells per well and cultured for 4 days in PD03 (1 μM) with LIF, and 0, 1, or 3 μM CH. Y axis indicates cell number (×10^4).
Moderating GSK3 inhibition improves self-renewal of rat ES cells (Chen et al., 2013a; Meek et al., 2013) and we have also observed that combination of Gö6983 with the GSK3 inhibitor CH is unfavourable for mouse ESC propagation (J. Wray and A S, unpublished). We therefore titrated CH. […] Henceforth cells were maintained in titrated 2i with LIF and Gö6983 (t2iL+Gö).

H9 and Shef6 cells = assay: Resetting by transient transfection with NANOG and KLF2 plasmids; type: cell-based, human; conditions: pilot experiments
Excerpt: For transient expression and resetting we first generated H9 and Shef6 cells with an EOS-GFP/puro^R reporter (Hotta et al., 2009) introduced in a piggyBac vector. We have observed that in the PB rather than lentiviral vector context this reporter is initially expressed heterogeneously in conventional PSC and progressively silenced, but is re-expressed during resetting. We used NANOG and KLF2 expression constructs driven by the CAG promoter harbouring a blasticidin resistance gene. One well of a 6-well plate was transfected as above with 3 μg of non-linearised NANOG and KLF2 plasmids. Two days later, medium was switched to N2B27 with PD173074 (PD17, 0.5 μM), PD03 (0.5 μM) and hLIF. At day 4, cells were retransfected and on day 8 medium was changed to t2iL+Gö. Puromycin selection (0.5 μg/ml) was applied from day 12 onwards for two passages. Single colonies were picked on passage 4 or 5. […]
We investigated the timespan for resetting by inducing NANOG/KLF2 expression with DOX for finite intervals then assaying colony formation in t2iL+Gö. […] These were indistinguishable in morphology from cultures in which transgenes […] or from reset cells generated previously with inducible transgenes. qRT-PCR and immunostaining confirmed sustained expression of ground state pluripotency factors (FIG. 7E, F). […]

reset iH9-EOS cells = assay: Culture of reset cells in t2iL with Ro-31-8425 replacing Gö6983; type: cell-based, human; conditions: 0.1 μM in t2iL, 25 days (7 passages)
Description: FIG. 41 Bright field and fluorescence images of reset iH9-EOS cells after culture for 25 days (7 passages) in […] with Ro-31-8425 (0.1 μM) replacing Gö6983.

[2] = tested on: Human ES cells Shef6 and H9, which carry the EOS reporter; assay: Resetting without transgenes, EOS-GFP reporter (FACS, colonies); type: cell-based
Description: PDL-HDACi comprises mTeSR™-E6 basal medium (Stem Cell Technologies) supplemented with 1 μM PD0325901, human LIF (10 ng/ml, prepared in house) and a
HDAC inhibitor such as valproic acid sodium salt (VPC, 0.5-1 mM, Sigma,) or sodium butyrate (SB, 0.5-1 mM, Sigma).
Optionally a Wnt pathway inhibitor such as XAV939 (2 μM) may be included, constituting PDXL.
Human ES cells Shef6 and H9, which carry the EOS reporter [Hotta], were plated at a density of 50,000 to 100,000 cells per well of a six well tissue culture dish in KSR/FGF medium supplemented with 10 μM ROCK inhibitor (Y-27632). The day after medium was replaced with resetting medium (PDL-HDACi or PDXL-HDACi) for the following three days. Thereafter the cells were maintained in naïve maintenance medium, T2ilGö-FROCKi (FIG. 30).
EOS reporter contains a GFPIresPuro cassette driven by LTR of early transposon and a trimer of mouse Oct4 distal enhancer. The EOS reporter in majority of conventional human ES cells is expressed at low to undetectable level by microscope. More than 80 percent of cells do show low to moderate GFP expression by flow cytometry analysis (FACS) (FIG. 31). The resetting medium induced vast cell death and differentiation three days after. The dome shaped GFP positive colonies appears around Day5 to Day7 and peaked after day10 to day 12 (FIG. 32, FIG. 33, FIG. 34). The colonies can then be passaged in bulk or picked singly using TrypLE™ express. Puromycin selection is applied for one or two passages to exclude differentiated cells if needed. The reset cells expressed elevated naïve state markers, TFCP2L1 and DPPA3 from Day7 during resetting (FIG. 35). Two pools, iS6-N and iS6-E, have been maintained over 15 passages and are karyotypically normal by G-band analysis. They form embryoid body readily in low adhesive 96 well plates and up-regulate differentiation markers (FIG. 36).

[3] = tested on: reset cells and conventional PSC; assay: Oxygen consumption rate (SeaHorse extracellular flux); type: cell-based, human; conditions: injected during assay
Description: A. Oxygen consumption rate (OCR). Measurements obtained using a SeaHorse Extracellular Flux analyser.
Oxygen consumption was measured using an XF^e24 Analyzer (SeaHorse Bioscience) according to the manufacturer's protocol. In brief, SeaHorse plates were pre-treated by coating with laminin and 80,000 cells were seeded on each well the night before the experiment. Culture media were exchanged for XF Base Medium (SeaHorse bioscience) supplemented with 2 mM pyruvate and 20 mM glucose with an adjusted pH of 7.4 and cells incubated at 37° C. in atmospheric CO2 for one hour. Oligomycin (2 μM), FCCP ([…]), Antimycin (1 μM) and Rotenone (1 μM) were injected during assay (XF cell mito stress test kit, Seahorse Bioscience). Mitochondria were stained with Mito Tracker Green FM (final concentration 50 nM, Life Technologies) or Tetramethylrhodamine, ethyl ester (TMRE, final concentration 20 nM, Life Technologies) in the relevant medium for 10 minutes and analysed by confocal microscopy.

reset H9 cells = assay: Propagation of reset cells in 2iL upon DOX withdrawal; type: cell-based, human; conditions: 5 μM added to 2iL upon DOX withdrawal
Description: B. PKC inhibitor Gö6983 maintains the reset state in the absence of transgene expression. Upon DOX withdrawal cells in 2iL degenerated. […] Note that intrinsic fluorescence of Gö produces a faint red background signal.
To induce resetting, transfected PSC were dissociated with trypsin and replated as single cells in the presence of ROCK inhibitor. Doxycycline (DOX, 1 μM) was added the next day and 24 h later medium was changed to N2B27 medium (Ndiff227, StemCells Inc., SCS-SF-NB-02) with 1 μM PD0325901 (PD03), human LIF (prepared in-house), DOX and either 3 μM CHIR99021 (2iL+DOX) or 1 μM CHIR99021 (t2iL+DOX). Medium was changed every day. Cells were split every five to seven days after dissociation to single cells with Accutase (Life Technologies) for 10 minutes. Around two weeks after DOX induction, cells were transferred to t2iL+5 μM PKC inhibitor Gö6983 (Sigma-Aldrich) (t2iL+Gö). Reset cells cultured in t2iL+Gö were also passaged every five to seven days as single cells. Cells transferred to t2iL+Gö proliferate slowly for the initial couple of passages after withdrawal of DOX. Cells were maintained on MEF feeders throughout.
These cultures expressed OCT4 (FIG. 8) and expanded continuously, although proliferation was reduced and morphology less consistent compared to DOX-maintained cells.

reset cells [4] = assay: Feeder-free culture of reset cells on Matrigel or Laminin 511-E8; type: cell-based, human; conditions: Gö reduced to 2 μM, ROCKi added prior to passaging
Description: For feeder-free culture plates were coated overnight at 4° C. with either diluted BD Matrigel hES-qualified Matrix (1:30) or Laminin 511-E8 (iMatrix-511; Nippi) at […] (Nakagawa et al., 2014). Cells were dissociated in the presence of ROCKi and plated in t2iL with Gö reduced to 2 μM.
Based on observations with mouse ESC we realised that Gö concentration was critical without buffering by feeders. We therefore reduced Gö to 2 μM and also added ROCKi prior to passaging. […] On both substrates cells could be expanded, albeit more slowly on laminin, and ground state pluripotency factor expression was retained over several passages (FIG. 1L).

reset cells [5] = assay: Colony forming assay (alkaline phosphatase staining) in t2iL+Gö; type: cell-based, human; conditions: transgene-free reset cells in t2iL+Gö plus inhibitor, without ROCKi
Description: E. Colony forming assay. Cells maintained in t2iL+Gö were seeded without ROCKi at 2000 cells/well in 12 well dishes in t2iL+Gö plus FGF receptor inhibitor PD17 or TGF-β/activin receptor inhibitor A83-01. Colonies were stained for alkaline phosphatase after 7 days.
G. Colony forming assays on transgene-free reset cells. Cells maintained in t2iL+Gö were seeded at 2000 cells/well in […] in t2iL+Gö plus FGF receptor inhibitor PD17 or TGF-b/activin receptor inhibitor A83-01 and without ROCKi. Colonies were stained for alkaline phosphatase after 7 days.
Reset H9 cells maintained in t2iL+Gö were seeded without ROCKi at 2000 cells/well in 12 well dishes in t2iL+Gö. FGF receptor inhibitor PD173074 or TGF-β/activin receptor inhibitor A83-01 were added. Colonies were stained for alkaline phosphatase after 7 days.
Colony forming assays were carried out on MEF feeder cells by plating 1000 cells per well in 24-well plates, 2000 cells for 12-well plates and 5000 cells for 6-well plates. ROCKi was used for conventional but not reset cells. Activin/TGF β receptor inhibitor A83-01 was used at 0.25 μM where indicated. Plates were fixed and stained for alkaline phosphatase (Sigma-Aldrich, cat. 86R-1KT). Plates were scanned using a CellCelector (Aviso) or cellSens Dimension (Olympus).

With `Cc1c[nH]c(-c2cnc(NCCNc3ccc(C#N)cn3)nc2-c2ccc(Cl)cc2Cl)n1` [CH] the “growth rate and colony morphology” value (reset cells [1]; 1 μM CH, with PD03 (1 μM), LIF and Gö6983) was “restored growth rate while maintaining morphology”, the “growth rate and colony morphology” value (reset cells [1]; complete absence of CH) was “colony morphology improved in the complete absence of CH, but growth rate was reduced” and the “effect on the resetting process” value (H9 and Shef6 cells) was “appeared inhibitory to the resetting process”.
`Cn1cc(C2=C(c3c4n(c5ccccc35)CCC(CN)C4)C(=O)NC2=O)c2ccccc21` (stereo not shown) [Ro-31-8425] was tested, and the “use as alternative PKC inhibitor for culture of reset cells” value (reset iH9-EOS cells) was “can be used as an alternative to Gö6983”.
For `Oc1nc(-c2ccc(C(F)(F)F)cc2)nc2c1CSCC2` [XAV939], the “colony yield / resetting efficiency” value ([2]; 2 μM in transgene-free resetting medium (PDXL)) was “colony yield may be higher for some cell lines but colonies are also more heterogeneous; also recorded: could significantly increase resetting efficiency”.
`N#CC(C#N)=NNc1ccc(OC(F)(F)F)cc1` [FCCP] was tested, and the “oxygen consumption rate (OCR), reset cells versus conventional PSC” value [3] was “greater OCR increase in reset cells than conventional PSC”.
In the case of `CCN(CC)CCCCNc1ncc2cc(-c3cc(OC)cc(OC)c3)c(NC(=O)NC(C)(C)C)nc2n1` [PD17], the “effect on the resetting process” value (H9 and Shef6 cells) was “might favour resetting”.
`CCCC(CCC)C(=O)[O-].[Na+]` [VPC, valproic acid sodium salt] was tested, and the “resetting efficiency (GFP expression by FACS)” value ([2]; three days VPC treatment, 7 days after resetting, increase from around 1%) was roughly 3%.
In the case of `COc1ccc2c(c1)c(C1=C(c3c[nH]c4ccccc34)C(=O)NC1=O)cn2CCCN(C)C` [Gö6983, 3-[1-[3-(dimethylamino)propyl]-5-methoxy-1H-indol-3-yl]-4-(1H-indol-3-yl)-1H-pyrrole-2,5-dione], the “maintenance of the reset state in the absence of transgene expression” value (reset H9 cells) was “maintained cell proliferation and compact colony morphology; also recorded: allowed maintenance of compact refractile colonies without Venus expression” and the “undifferentiated colony formation without feeders” value (reset cells [4]) was “could form undifferentiated colonies on Matrigel or laminin 511-E8”.
`Cc1cccc(-c2nn(C(=S)Nc3ccccc3)cc2-c2ccnc3ccccc23)n1` [A83-01] was tested, and the proliferation without differentiation (reset cells [5]) was “continued to proliferate without differentiation”.
For `CC[C@H]1/C=C/C=C/C[C@@H](C)[C@H](O)[C@@](C)(O)C(=O)[C@@H](C)[C@H](O)[C@@H](C)C(=O)[C@@H](C)[C@H](O)[C@@H](C)/C=C/C(=O)O[C@@H]2[C@H](C)[C@H](CC1)O[C@]1(CC[C@H](C)[C@H](C[C@@H](C)O)O1)[C@H]2C` [oligomycin], the “oxygen consumption rate (OCR), reset cells versus conventional PSC” value [3] was “difference was minimised”.
In the case of `CCCC(=O)[O-].[Na+]` [Sodium butyrate, sodium butyrate], the “resetting induction (GFP expression by FACS)” value ([2]; 7 days after resetting) was “potent resetting inducer”.
